Test results: patent US20240074990A1 (priority 2022, published 2024)
Several values for one entry are separate records, joined by “and”; a condition that tells them apart may be missing. Equal values may be shown once. Entries after “also recorded” stand apart in the source; their conditions may differ. Read-outs that look alike come from different tables or passages of the source.

Columns and labels:
SARS-CoV-2 3CL protease = SARS-CoV-2 3CL protease (Severe acute respiratory syndrome coronavirus 2, UniProt P0DTD1); test: In-vitro enzyme activity inhibition test on SARS-CoV-2 3CL protease (fluorescence resonance energy transfer method); format: biochemical; conditions: for inhibitory activity on SARS-CoV-2 3CL proteases (in words): statement in words
SARS-CoV 3CL protease = SARS-CoV 3CL protease (Severe acute respiratory syndrome coronavirus, UniProt P0C6X7); test: biochemical; conditions: for IC50: FRET, three parallel tests; for inhibitory activity on SARS-CoV 3CL proteases (in words): statement in words
[1] = 1 μM compound, parallel tests 1, 2, 3, 1 µM
[2] = 5 μM compound, parallel tests 1, 2, 3, 5 µM
[3] = 10 μM compound, parallel tests 1, 2, 3, 10 µM
[4] = 20 μM compound, parallel tests 1, 2, 3, 20 µM
[5] = 30 μM compound, parallel tests 1, 2, 3, 30 µM
[6] = 50 μM compound, parallel tests 1, 2, 3, 50 µM
[7] = 100 μM compound, parallel tests 1, 2, 3, 100 µM
[8] = IC50, SARS-CoV-2 3CL protease, FRET, three parallel tests
[9] = read-out: inhibition percentage, 1 μM compound, parallel tests 1, 2, 3
[10] = read-out: inhibition percentage, 5 μM compound, parallel tests 1, 2, 3
[11] = read-out: inhibition percentage, 10 μM compound, parallel tests 1, 2, 3
[12] = read-out: inhibition percentage, 20 μM compound, parallel tests 1, 2, 3
[13] = read-out: inhibition percentage, 30 μM compound, parallel tests 1, 2, 3
[14] = read-out: inhibition percentage, 50 μM compound, parallel tests 1, 2, 3
[15] = read-out: inhibition percentage, 100 μM compound, parallel tests 1, 2, 3
[16] = 0.1 μM compound, parallel tests 1, 2, 3, 0.1 µM
[17] = 0.5 μM compound, parallel tests 1, 2, 3, 0.5 µM

For `Cc1cc2c(C(C)C)c(O)c(O)c(C=O)c2c(O)c1-c1c(C)cc2c(C(C)C)c(O)c(O)c(C=O)c2c1O` [Gossypol, gossypol], the inhibition percentage (SARS-CoV-2 3CL protease; [1]) was 16.13 and 28.41, the inhibition percentage (SARS-CoV-2 3CL protease; [2]) was 33.24 and 41.67 and the inhibition percentage (SARS-CoV-2 3CL protease; [3]) was 49.17 and 61.32. The inhibition percentage (SARS-CoV-2 3CL protease; [4]) was 61.34 and 74.52, the inhibition percentage (SARS-CoV-2 3CL protease; [5]) was 72.15 and 83.12 and the inhibition percentage (SARS-CoV-2 3CL protease; [6]) was 81.17 and 90.16. For the same compound, the inhibition percentage (SARS-CoV-2 3CL protease; [7]) was 87.84 and 95.27, the IC50 (SARS-CoV-2 3CL protease; [8]) was 6.91 ± 0.839 µM and the inhibition at 1 µM (SARS-CoV-2 3CL protease; [9]) was 22.9%. The inhibition at 5 µM (SARS-CoV-2 3CL protease; [10]) was 36.2%, the inhibition at 10 µM (SARS-CoV-2 3CL protease; [11]) was 57.4% and the inhibition at 20 µM (SARS-CoV-2 3CL protease; [12]) was 71.2%. For the same compound, the inhibition at 30 µM (SARS-CoV-2 3CL protease; [13]) was 83.7%, the inhibition at 50 µM (SARS-CoV-2 3CL protease; [14]) was 88.4% and the inhibition at 100 µM (SARS-CoV-2 3CL protease; [15]) was 93.2%. For the same compound, the “inhibitory activity on SARS-CoV-2 3CL proteases (in words)” value (SARS-CoV-2 3CL protease) was “all have inhibitory activity; also recorded: excellent inhibitory activity”, the inhibition percentage (SARS-CoV 3CL protease; [1]) was 18.54 and 31.50 and the inhibition percentage (SARS-CoV 3CL protease; [2]) was 35.68 and 44.78. The inhibition percentage (SARS-CoV 3CL protease; [3]) was 51.33 and 64.31, the inhibition percentage (SARS-CoV 3CL protease; [4]) was 64.56 and 77.58 and the inhibition percentage (SARS-CoV 3CL protease; [5]) was 75.44 and 86.42. The inhibition percentage (SARS-CoV 3CL protease; [6]) was 84.12 and 93.41, the inhibition percentage (SARS-CoV 3CL protease; [7]) was 90.09 and 98.44 and the IC50 (SARS-CoV 3CL protease; IC50, SARS-CoV 3CL protease) was 5.43 ± 0.734 µM. The inhibition at 1 µM (SARS-CoV 3CL protease; [9]) was 25.6%, the inhibition at 5 µM (SARS-CoV 3CL protease; [10]) was 40.4% and the inhibition at 10 µM (SARS-CoV 3CL protease; [11]) was 61.2%. It also gave an inhibition at 20 µM (SARS-CoV 3CL protease; [12]) of 75%, an inhibition at 30 µM (SARS-CoV 3CL protease; [13]) of 85.1% and an inhibition at 50 µM (SARS-CoV 3CL protease; [14]) of 92.1%. For the same compound, the inhibition at 100 µM (SARS-CoV 3CL protease; [15]) was 96.3% and the “inhibitory activity on SARS-CoV 3CL proteases (in words)” value (SARS-CoV 3CL protease) was “all have inhibitory activity; also recorded: excellent inhibitory activity”.
`Cc1cc2c(C(C)C)c(O)c(O)c(C=O)c2c(O)c1-c1c(C)cc2c(C(C)C)c(O)c(O)c(C=O)c2c1O` (single isomer, unassigned) [(−)- gossypol, (−)-gossypol] was tested, and the inhibition percentage (SARS-CoV-2 3CL protease; [16]) was 12.83 and 10.83 and 14.77, the inhibition percentage (SARS-CoV-2 3CL protease; [17]) was 20.99 and 19.88 and 22.88 and the inhibition percentage (SARS-CoV-2 3CL protease; [1]) was 31.43 and 32.87 and 34.65. The inhibition percentage (SARS-CoV-2 3CL protease; [2]) was 52.19 and 48.98 and 56.91, the inhibition percentage (SARS-CoV-2 3CL protease; [3]) was 71.90 and 65.43 and 69.78 and the inhibition percentage (SARS-CoV-2 3CL protease; [4]) was 82.54 and 75.44 and 83.47. For the same compound, the inhibition percentage (SARS-CoV-2 3CL protease; [5]) was 90.45 and 83.21 and 91.45, the inhibition percentage (SARS-CoV-2 3CL protease; [6]) was 96.88 and 90.68 and 95.87 and the inhibition percentage (SARS-CoV-2 3CL protease; [7]) was 99.23 and 96.73 and 98.44. For the same compound, the IC50 (SARS-CoV-2 3CL protease; IC50) was 2.97 ± 0.473 µM, the IC50 (SARS-CoV-2 3CL protease; [8]) was under 10 µM and the “inhibitory activity on SARS-CoV-2 3CL proteases (in words)” value (SARS-CoV-2 3CL protease) was “all have inhibitory activity; also recorded: excellent inhibitory activity”. The inhibition percentage (SARS-CoV 3CL protease; [16]) was 13.11 and 10.83 and 15.87, the inhibition percentage (SARS-CoV 3CL protease; [17]) was 24.54 and 21.88 and 30.26 and the inhibition percentage (SARS-CoV 3CL protease; [1]) was 43.78 and 40.92 and 50.01. The inhibition percentage (SARS-CoV 3CL protease; [2]) was 64.32 and 58.9 and 67.22, the inhibition percentage (SARS-CoV 3CL protease; [3]) was 77.32 and 72.54 and 73.76 and the inhibition percentage (SARS-CoV 3CL protease; [4]) was 86.43 and 78.13 and 85.43. The inhibition percentage (SARS-CoV 3CL protease; [5]) was 91.83 and 87.54 and 90.32, the inhibition percentage (SARS-CoV 3CL protease; [6]) was 98.42 and 92.10 and 97.54 and the inhibition percentage (SARS-CoV 3CL protease; [7]) was 99.74 and 98.12 and 99.53. For the same compound, the IC50 (SARS-CoV 3CL protease; IC50, SARS-CoV 3CL protease) was 1.79 µM and < 10 µM and the “inhibitory activity on SARS-CoV 3CL proteases (in words)” value (SARS-CoV 3CL protease) was “all have inhibitory activity; also recorded: excellent inhibitory activity”.
In the case of `Cc1cc2c(C(C)C)c(O)c(O)c(C=O)c2c(O)c1-c1c(C)cc2c(C(C)C)c(O)c(O)c(C=O)c2c1O` (single isomer, unassigned) [(+)- gossypol, (+)-gossypol], the inhibition percentage (SARS-CoV-2 3CL protease; [1]) is reported as 2.45 and 3.18 and 3.87, the inhibition percentage (SARS-CoV-2 3CL protease; [2]) is reported as 5.69 and 7.88 and 9.54 and the inhibition percentage (SARS-CoV-2 3CL protease; [3]) is reported as 9.43 and 11.87 and 14.87. The inhibition percentage (SARS-CoV-2 3CL protease; [4]) was 18.73 and 20.90 and 22.44, the inhibition percentage (SARS-CoV-2 3CL protease; [5]) was 25.21 and 28.43 and 29.13 and the inhibition percentage (SARS-CoV-2 3CL protease; [6]) was 36.55 and 40.32 and 38.72. The inhibition percentage (SARS-CoV-2 3CL protease; [7]) was 58.34 and 61.83 and 55.88, the IC50 (SARS-CoV-2 3CL protease; [8]) was 75.2 ± 1.88 µM and the “inhibitory activity on SARS-CoV-2 3CL proteases (in words)” value (SARS-CoV-2 3CL protease) was “all have inhibitory activity”. The inhibition percentage (SARS-CoV 3CL protease; [1]) was 3.96 and 4.54 and 5.87, the inhibition percentage (SARS-CoV 3CL protease; [2]) was 11.58 and 9.88 and 13.43 and the inhibition percentage (SARS-CoV 3CL protease; [3]) was 19.12 and 16.53 and 20.66. For the same compound, the inhibition percentage (SARS-CoV 3CL protease; [4]) was 22.9 and 26.42 and 30.76, the inhibition percentage (SARS-CoV 3CL protease; [5]) was 28.14 and 30.43 and 38.33 and the inhibition percentage (SARS-CoV 3CL protease; [6]) was 45.56 and 48.42 and 51.33. The inhibition percentage (SARS-CoV 3CL protease; [7]) was 72.33 and 62.28 and 74.43, the IC50 (SARS-CoV 3CL protease; IC50, SARS-CoV 3CL protease) was 51.6 ± 1.71 µM and the “inhibitory activity on SARS-CoV 3CL proteases (in words)” value (SARS-CoV 3CL protease) was “all have inhibitory activity”.
`CC(=O)O.Cc1cc2c(C(C)C)c(O)c(O)c(C=O)c2c(O)c1-c1c(C)cc2c(C(C)C)c(O)c(O)c(C=O)c2c1O` [Acetate gossypol, acetate gossypol] was tested, and the inhibition percentage (SARS-CoV-2 3CL protease; [1]) was 24.71 and 17.94 and 30.17, the inhibition percentage (SARS-CoV-2 3CL protease; [2]) was 37.81 and 34.61 and 43.51 and the inhibition percentage (SARS-CoV-2 3CL protease; [3]) was 59.14 and 50.87 and 63.21. For the same compound, the inhibition percentage (SARS-CoV-2 3CL protease; [4]) was 72.87 and 63.41 and 76.32, the inhibition percentage (SARS-CoV-2 3CL protease; [5]) was 85.31 and 73.94 and 84.81 and the inhibition percentage (SARS-CoV-2 3CL protease; [6]) was 90.17 and 82.76 and 91.83. The inhibition percentage (SARS-CoV-2 3CL protease; [7]) was 95.41 and 89.67 and 97.16, the IC50 (SARS-CoV-2 3CL protease; SARS-CoV-2 3CL protease, FRET, three parallel tests, read-out: IC50) was 6.09 ± 0.784 µM and the “inhibitory activity on SARS-CoV-2 3CL proteases (in words)” value (SARS-CoV-2 3CL protease) was “all have inhibitory activity; also recorded: excellent inhibitory activity”. The inhibition percentage (SARS-CoV 3CL protease; [1]) was 26.61 and 19.97 and 32.84, the inhibition percentage (SARS-CoV 3CL protease; [2]) was 41.15 and 36.26 and 45.91 and the inhibition percentage (SARS-CoV 3CL protease; [3]) was 62.48 and 52.56 and 65.81. For the same compound, the inhibition percentage (SARS-CoV 3CL protease; [4]) was 75.14 and 65.81 and 78.97, the inhibition percentage (SARS-CoV 3CL protease; [5]) was 86.61 and 76.15 and 87.62 and the inhibition percentage (SARS-CoV 3CL protease; [6]) was 93.52 and 85.63 and 94.62. For the same compound, the inhibition percentage (SARS-CoV 3CL protease; [7]) was 97.81 and 91.32 and 98.71, the IC50 (SARS-CoV 3CL protease; SARS-CoV 3CL protease, read-out: IC50) was 5.16 ± 0.712 µM and the “inhibitory activity on SARS-CoV 3CL proteases (in words)” value (SARS-CoV 3CL protease) was “all have inhibitory activity; also recorded: excellent inhibitory activity”.
